Assay results: US6525021B1 (priority 1998, dated 2003)
Entries after “also recorded” stand apart in the source; their conditions may differ. Non-standard residues stand in square brackets, D forms with d. Residues, ends and D or L forms follow the SMILES beside them. *: point of attachment. X1 = CC(=O)N[C@@H]1[C@@H](O[C@@H]2O[C@H](CO)[C@H](O)[C@H](O)[C@H]2O)[C@@H](O)[C@@H](CO)O[C@@H]1*; pGlu = O=C1CC[C@@H](C(=O)O)N1

Legend:
[1] = target: rNTR2 (Rattus norvegicus, UniProt Q63384); type: cell-based
Sequence of rNTR2 (Q63384 whole entry, looked up): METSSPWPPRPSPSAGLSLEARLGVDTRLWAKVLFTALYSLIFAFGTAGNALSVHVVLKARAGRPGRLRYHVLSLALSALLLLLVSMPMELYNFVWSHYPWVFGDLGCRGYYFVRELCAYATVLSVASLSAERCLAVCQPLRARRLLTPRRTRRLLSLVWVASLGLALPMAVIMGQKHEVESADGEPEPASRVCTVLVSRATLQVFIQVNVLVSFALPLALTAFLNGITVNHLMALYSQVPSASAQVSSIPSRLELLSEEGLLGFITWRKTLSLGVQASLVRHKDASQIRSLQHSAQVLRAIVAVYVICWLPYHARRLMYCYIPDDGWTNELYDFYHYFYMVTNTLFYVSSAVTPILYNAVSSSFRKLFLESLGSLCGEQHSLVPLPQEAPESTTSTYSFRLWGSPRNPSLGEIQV

[2] = target: human neurotensin type 1 receptor (hNTR1) (Homo sapiens, UniProt P30989); assay: biochemical; type: binding
Sequence of human neurotensin type 1 receptor (hNTR1) (P30989 whole entry, looked up): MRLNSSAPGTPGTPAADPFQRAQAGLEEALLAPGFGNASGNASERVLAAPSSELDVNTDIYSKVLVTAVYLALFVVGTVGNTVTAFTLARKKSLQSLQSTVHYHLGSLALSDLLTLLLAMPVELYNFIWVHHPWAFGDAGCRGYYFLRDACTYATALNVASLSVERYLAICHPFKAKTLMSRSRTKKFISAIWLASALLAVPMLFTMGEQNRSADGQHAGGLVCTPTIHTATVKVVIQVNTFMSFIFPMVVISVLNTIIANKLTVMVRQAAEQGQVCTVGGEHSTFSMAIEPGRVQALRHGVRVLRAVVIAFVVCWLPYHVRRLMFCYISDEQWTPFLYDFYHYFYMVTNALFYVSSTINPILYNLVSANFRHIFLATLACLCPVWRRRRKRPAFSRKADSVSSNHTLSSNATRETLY

[3] = target: solubilized mouse neurotensin type 3 receptor (mNTR3) (Mus musculus, UniProt Q6PHU5); assay: biochemical; type: binding
Sequence of solubilized mouse neurotensin type 3 receptor (mNTR3) (Q6PHU5 74-825 limits assumed): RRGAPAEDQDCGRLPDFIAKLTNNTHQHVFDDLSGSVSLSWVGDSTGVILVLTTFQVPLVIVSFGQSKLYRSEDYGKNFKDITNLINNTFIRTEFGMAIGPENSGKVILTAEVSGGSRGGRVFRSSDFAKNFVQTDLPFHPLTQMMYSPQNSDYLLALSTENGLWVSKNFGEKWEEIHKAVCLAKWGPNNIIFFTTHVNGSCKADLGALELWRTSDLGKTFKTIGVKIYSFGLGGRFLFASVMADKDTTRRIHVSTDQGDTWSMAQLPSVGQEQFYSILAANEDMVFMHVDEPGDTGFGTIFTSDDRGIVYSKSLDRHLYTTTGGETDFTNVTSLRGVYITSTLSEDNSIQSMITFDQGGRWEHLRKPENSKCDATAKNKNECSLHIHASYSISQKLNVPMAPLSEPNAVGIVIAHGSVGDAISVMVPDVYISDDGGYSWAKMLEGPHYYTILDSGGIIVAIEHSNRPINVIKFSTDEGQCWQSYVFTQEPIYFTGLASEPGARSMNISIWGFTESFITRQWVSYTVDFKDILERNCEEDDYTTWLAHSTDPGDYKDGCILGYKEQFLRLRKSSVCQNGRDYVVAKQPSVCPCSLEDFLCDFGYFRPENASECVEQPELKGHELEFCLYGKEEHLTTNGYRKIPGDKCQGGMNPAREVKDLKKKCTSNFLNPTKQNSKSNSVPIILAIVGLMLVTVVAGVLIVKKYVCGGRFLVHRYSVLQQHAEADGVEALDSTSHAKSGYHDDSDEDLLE

[4] = target: rNTR1 (Rattus norvegicus, UniProt P20789); assay: cell-based; type: cell-based
Sequence of rNTR1 (P20789 whole entry, looked up): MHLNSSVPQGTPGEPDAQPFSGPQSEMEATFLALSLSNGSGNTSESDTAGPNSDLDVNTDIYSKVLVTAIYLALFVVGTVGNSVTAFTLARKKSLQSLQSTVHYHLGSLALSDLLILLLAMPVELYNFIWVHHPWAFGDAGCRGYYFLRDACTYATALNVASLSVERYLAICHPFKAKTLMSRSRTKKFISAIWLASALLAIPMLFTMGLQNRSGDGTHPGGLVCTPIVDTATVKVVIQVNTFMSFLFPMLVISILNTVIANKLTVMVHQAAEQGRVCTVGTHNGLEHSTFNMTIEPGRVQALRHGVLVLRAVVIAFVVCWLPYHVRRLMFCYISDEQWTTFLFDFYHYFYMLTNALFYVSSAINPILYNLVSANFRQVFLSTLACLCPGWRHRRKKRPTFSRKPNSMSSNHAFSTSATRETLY

[5] = target: rat neurotensin type 2 receptor (rNTR2) (Rattus norvegicus, UniProt Q63384); assay: biochemical; type: binding
Sequence of rat neurotensin type 2 receptor (rNTR2) (Q63384 whole entry, looked up): as the sequence (Q63384 whole entry, looked up) above

[6] = target: rat neurotensin type 1 receptor (rNTR1) (Rattus norvegicus, UniProt P20789); assay: biochemical; type: binding
Sequence of rat neurotensin type 1 receptor (rNTR1) (P20789 whole entry, looked up): as the sequence (P20789 whole entry, looked up) above

[7] = parameters: species or system mice; settings: mouse, in vivo

Compound: CC[C@H](C)[C@H](NC(=O)[C@H](Cc1ccc(O)cc1)NC(=O)[C@@H]1CCCN1C(=O)[C@H](CCCCN)NC(=O)[C@H](CCCCN)NC(=O)[C@@H](NC(=O)[C@H](C)NC(=O)[C@H](CC(N)=O)NC(=O)[C@H](CO)NC(=O)CNC(=O)CNC(=O)[C@H](CCC(=O)O)NC(=O)[C@H](CCC(=O)O)NC(=O)[C@H](CO)NC(=O)[C@@H]1CCC(=O)N1)[C@@H](C)O[C@H]1O[C@H](CO)[C@H](O)[C@H](O[C@@H]2O[C@H](CO)[C@H](O)[C@H](O)[C@H]2O)[C@H]1NC(C)=O)C(=O)N[C@@H](CC(C)C)C(=O)O [contulakin-G] ([pGlu]SEEGGSNAT(X1)KKPYIL-OH)
- agonist response [1]: No response; also recorded: absence of any agonistic effect
- IC50 [2]: 960 nM
- IC50 [3]: 250 nM
- EC50 [4]: 20 to 30 nM
- agonistic efficacy compared with Neurotensin1-13 [4]: approximately half
- mode of action on CHO cells expressing the rNTR1 [4]: acted as agonists
- IC50 [5]: 730 nM
- IC50 [6]: 524 nM

Compound: Δ1-9-Ser10-contulakin-G containing the native glycosylation on Ser10 [analog B]
- activity (onset and recovery time) compared with analog A [7]: same activity
- time mice were drowsy [7]: 100 min
